# Experimental data from patent EP4596537A1, “NOVEL FLUORENE DERIVATIVE COMPOUND AND USE THEREOF” (JD Bioscience Inc., priority 2022, dated 2024).
# Assays:
# mice = experiment: Acute pancreatitis animal model (cerulein-induced); assay type: in vivo; conditions: 5 µg/kg or 10 µg/kg tail vein; dose-dependent
# Procedure: Acute pancreatitis was induced by intraperitoneal administration of cerulein (50 µg/kg) dissolved in saline to 8-week-old male mice. Compound 1 was administered at a concentration of 5 µg/kg or 10 µg/kg into the tail vein 24 hours and 1 hour before cerulein administration, and cerulein was intraperitoneally administered six times at 1-hour intervals. 18 hours after the first cerulein administration, the mice were anesthetized, the serum was separated, and the amylase and lipase activities in the serum were measured, which are shown in FIG. 8.
# C57BL6J JmcSlc mice = experiment: Inflammatory bowel disease animal model (DSS-induced colitis); assay type: in vivo
# Procedure: Colitis was induced in 8-week-old male C57BL6J JmcSlc mice by feeding 3.5% dextran sodium sulfate (DSS) ad libitum for 9 days, and then replacing the same with normal drinking water. The vehicle and Compound 1 (0.5 mg/kg or 1 mg/kg) were orally administered to the experimental animal model prepared as described above daily from 2 days before DSS drinking until the end of drinking. In order to determine the degree of colonic inflammation, the degree of longitudinal contraction of the isolated colon was measured, and the histological scores were confirmed through H&E staining, which is shown in FIG. 6. Furthermore, total RNA was isolated from the isolated colon, cDNA was synthesized, and the expression levels of representative cytokines (IFNγ, IL-1β, IL-4, IL-6, IL-10, IL-12β, IL-17a, and TNFα) were measured and compared using qPCR, and the results are shown in FIG. 7.
# liver cancer cells = experiment: Growth inhibition (Cell Counting Kit-8), liver cancer cells; assay type: cell-based; conditions: 24 hours, 0.5% FBS
# Procedure: In order to verify the growth inhibitory effect of Compound 1 on various normal and cancer cell lines, 25 types of cell lines listed in Table 7 below were tested. In detail, each cell was seeded at a density of 2 × 10^4 cells/well in a 96-well plate and cultured for 24 hours, and then the medium was replaced with a medium comprising 0.5% (for cancer cells) or 10% (for normal cells) FBS, and Compound 1 was treated at various concentrations. 24 hours later, 10 µL of Cell Counting Kit-8 (Dojindo Molecular Technologies) was added, and 1 hour later, absorbance at 480 nm was measured using a microplate reader (TECAN SPARK), and the results are shown in FIGS. 15 to 21.
# [1] = system: bone marrow-derived dendritic cells (BMDCs); experiment: Inflammasome formation (IL-1β ELISA) in LPS/ATP-treated dendritic cells; assay type: cell-based, C57BL6 mice; conditions: for IL-1β: LPS 500 ng/mL + 5 mM ATP, supernatant; for inhibited IL-1β expression: compared to vehicle control group
# Procedure: Furthermore, to verify the anti-inflammatory effect at a cellular level, bone marrow cells of C57BL6 mice were treated with 20 ng/mL of GM-CSF and IL-4, and 6 days later, bone marrow-derived dendritic cells (BMDCs) were collected. The BMDCs were prepared at 1×10^6 cells/mL and stabilized for one day, and then subsequent experiments were conducted. The above dendritic cells were treated with 500 ng/mL of LPS for 3 hours to prime pro-IL1 β, and then treated with Compound 1 (0 µM, 0.01 µM, 0.1 µM, 1 µM, and 10 µM) for 15 minutes. Next, 5 mM of ATP was treated, which induces inflammasome formation by converting pro-IL1β to IL-1β through pro-IL1β cleavage, and 30 minutes later, the concentration of IL-1β in the supernatant was measured by ELISA, and the results are shown in FIG. 10 and Table 3.
# Mfn2^-/^- MEF cells = experiment: Mitochondrial oxygen consumption rate (Seahorse), Charcot-Marie-Tooth disease model; assay type: cell-based, mouse; conditions: 1 µM, 24 hours
# Procedure: To verify the functional loss due to mutation of MFN2 present in the outer mitochondrial membrane, which is the main cause of Charcot-Marie-Tooth disease, the mitochondrial oxygen consumption rate (OCR) was measured. In detail, Mfn2^+/^+ MEF cells (normal cells), which are mouse embryonic fibroblasts expressing Mfn2, and Mfn2^-/^- MEF cells not expressing Mfn2 were cultured at a density of 1 × 10^4 for 24 hours in a Seahorse XF24 culture dish using a DMEM medium supplemented with 10% FBS and penicillin/streptomycin. The cells were treated with DMSO as a vehicle and Compound 1 (1 µM) and cultured for another 24 hours. The mitochondrial oxygen consumption rate was measured using a […] (Agilent Technologies), and the results are shown in FIG. 13.
# PDHE1α S293 = experiment: In vitro PDH S293 phosphorylation inhibition (Western blot) in HEK293 cells; assay type: cell-based, human; conditions: Homo sapiens, 5 hours
# How it was run: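 HEK293 cells were switched to 0.5% FBS medium and treated with compounds at various concentrations for 5 h. Lysate protein (20 µg) was analysed by Western blot for phospho-PDHE1α S293 alongside total PDHE1α, with inhibition of S293 phosphorylation as the read-out.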
# [2] = system: HCT-116 colorectal cancer cell line; experiment: Anticancer efficacy in HCT-116 colorectal cancer tumor model; assay type: in vivo, nude mice; conditions: for reduced tumor growth (tumor volume) compared to vehicle: 21 times, day 24
# Procedure: A colorectal cancer model was established by subcutaneously transplanting HCT-116 colorectal cancer cell line into nude mice. The colorectal cancer model was divided into the following three groups: Group 1 was administered a vehicle as a control group, Group 2 was administered 0.5 mg/kg of Compound 1, and Group 3 was administered 1.0 mg/kg of Compound 1. The drug was orally administered once a day for a total of 21 times. To evaluate the therapeutic efficacy, the tumor size was measured before drug administration and on days 3, 7, 10, 14, 17, 21, and 24 after drug administration. The tumor size was calculated as follows: Tumor size (mm^3) = (A×B^2)/2 [formula] wherein A and B represent the tumor long axis and short axis, respectively.
# In addition, the body weight was measured before drug administration and on days 7, 14, and 21 after drug administration.
# [3] = qPCR, vs vehicle administration group
smiles,measurement,setting,value
"CC(C(=O)NNc1ccc(F)cc1)n1cc(-c2cc(F)cc3c2-c2ccccc2C3(O)C(F)(F)F)cn1 (stereo not drawn) [Example 1, 2-(4-(2-fluoro-9-hydroxy-9-(trifluoromethyl)-9H-fluoren-4-yl)-1H-pyrazol-1-yl)-N'-(4-fluorophenyl)propanehydrazide]",serum amylase activity,mice,decreased
same,serum lipase activity,mice,decreased
same,longitudinal contraction of colon,"C57BL6J JmcSlc mice; 0.5 mg/kg and 1 mg/kg oral daily, vs vehicle, effect increased with dose",alleviated
same,colonic epithelial cell recovery (H&E staining),"C57BL6J JmcSlc mice; 0.5 mg/kg oral daily, DSS",slight
same,colonic epithelial cell recovery (H&E staining),"C57BL6J JmcSlc mice; 1 mg/kg oral daily, DSS",remarkable epithelial cell recovery
same,tissue score (histological score),"C57BL6J JmcSlc mice; 1 mg/kg oral daily, DSS",lowest score
same,mRNA expression of IFNγ (colon),C57BL6J JmcSlc mice; [3],significantly reduced
same,mRNA expression of IL-4 (colon),C57BL6J JmcSlc mice; [3],increased
same,mRNA expression of IL-6 (colon),C57BL6J JmcSlc mice; [3],significantly reduced
same,mRNA expression of IL-12b (colon),C57BL6J JmcSlc mice; [3],significantly reduced
same,mRNA expression of IL-17a (colon),C57BL6J JmcSlc mice; [3],significantly reduced
same,mRNA expression of TNFα (colon),C57BL6J JmcSlc mice; [3],significantly reduced
same,concentration at which viability began to rapidly decrease to 70% or less,liver cancer cells,10 µM
same,IL-1β,[1]; 0.01 µM,1131.823 pg/mL
same,IL-1β,[1]; 0.1 µM,1009.825 pg/mL
same,inhibited IL-1β expression,[1]; 0.1 µM,about 83.802%
same,IL-1β,[1]; 1 µM,907.2636 pg/mL
same,IL-1β,[1]; 10 µM,647.6982 pg/mL
same,inhibited IL-1β expression,[1]; 10 µM,about 53.7504%
same,mitochondrial oxygen consumption rate (OCR),Mfn2^-/^- MEF cells,markedly restored to a level comparable to that of normal cells
same,inhibition at 1 µM,PDHE1α S293,≥ 80%
same,body weight change,"[2]; 0.5 mg/kg and 1.0 mg/kg oral, days 7, 14, 21",no significant body weight change
same,reduced tumor growth (tumor volume) compared to vehicle,[2]; 0.5 mg/kg oral once a day,41%
same,reduced tumor growth (tumor volume) compared to vehicle,[2]; 1.0 mg/kg oral once a day,49%
